Some test systems named below: OVCAR-4 ovarian; UO-31 renal; COLO 205 colon; SK-MEL-28 melanoma; UACC-257 melanoma; HL-60(TB) leukemia; 786-0 renal; SF-295 CNS; NCI-H23 lung.
What all share (experiment): NCI-60 cell line screen, 48 h

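Tested at 5 concentrations; 48 h exposure; 96-well plates; endpoints linearly interpolated, else capped at highest concentration. The concentration for 50% growth inhibition is given as GI50. TGI: total growth inhibition.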 Some results are limits rather than exact numbers.

On to `COc1cc(CCc2ccc(OCCN(C)C)cc2)cc(OC)c1OC`, for which the TGI in the assay with OVCAR-4 ovarian is over 100 µM; in the assay with UO-31 renal it was over 100 µM; with COLO 205 colon, 38.9 µM; with SK-MEL-28 melanoma, over 100 µM; in the assay with UACC-257 melanoma it was over 100 µM; in the assay with HL-60(TB) leukemia it was over 100 µM. Further, the TGI in the assay on 786-0 renal and with SF-295 CNS was over 100 µM in each case.

For the molecule `Cn1c(=O)nc2n(-c3ccc(Cl)cc3)c3ccc(Cl)cc3nc-2c1=O`, the TGI stood at 39.8 µM in the assay on UO-31 renal; 21.4 µM in the assay on SK-MEL-28 melanoma; 14.5 µM with UACC-257 melanoma; 18.9 µM with HL-60(TB) leukemia; 54.7 µM in the assay on 786-0 renal; 8.65 µM in the assay with NCI-H23 lung. The molecule further showed a TGI with SF-295 CNS of 19 µM.

Turning to `O=C1C(=O)N(C(=O)c2ccc(Cl)c(Cl)c2)c2ccccc21`, the TGI with OVCAR-4 ovarian, in the assay on UO-31 renal, in the assay on COLO 205 colon, in the assay on SK-MEL-28 melanoma, in the assay with HL-60(TB) leukemia and in the assay with 786-0 renal was over 100 µM in each case. In addition, the TGI in the assay with NCI-H23 lung and with SF-295 CNS was over 100 µM in each case.

Take `CC1=C(C)C(=O)c2c(cc3ccc4ccccc4n23)C1=O`: the TGI in the assay on OVCAR-4 ovarian, in the assay with UO-31 renal, with COLO 205 colon, with SK-MEL-28 melanoma, with HL-60(TB) leukemia and in the assay with 786-0 renal was over 100 µM each time. Moreover, the TGI with NCI-H23 lung and in the assay with SF-295 CNS was over 100 µM in each case.

As to `COc1ccc2cc(C(=O)/C=C/c3cc(OC)c(OC)c(OC)c3)ccc2c1`, the GI50 is 2.82 µM in the assay with OVCAR-4 ovarian; 7.44 µM in the assay on UO-31 renal; 13.7 µM in the assay with COLO 205 colon; 3.91 µM in the assay on SK-MEL-28 melanoma; 5.34 µM with HL-60(TB) leukemia; 7.61 µM in the assay on 786-0 renal. Also, the GI50 in the assay on NCI-H23 lung was 1.77 µM; with SF-295 CNS, 13 µM. Also, the TGI was over 50 µM in the assay on OVCAR-4 ovarian; 15.5 µM in the assay with UO-31 renal; over 50 µM in the assay with COLO 205 colon; 13.8 µM in the assay with SK-MEL-28 melanoma; 20.9 µM in the assay with HL-60(TB) leukemia; 15.7 µM in the assay on 786-0 renal. The TGI in the assay on NCI-H23 lung is 11.2 µM; in the assay on SF-295 CNS, over 50 µM.

`O=C(c1ccccc1)C(C(=O)c1ccccc1)C1(O)C(=O)c2ccccc2C1=O`: the TGI with UO-31 renal is over 100 µM; in the assay on COLO 205 colon, over 100 µM; in the assay on SK-MEL-28 melanoma it was over 100 µM; in the assay on UACC-257 melanoma it was over 100 µM; with HL-60(TB) leukemia, 46.9 µM; in the assay with 786-0 renal it was over 100 µM. The results for the TGI in the assay with NCI-H23 lung and in the assay on SF-295 CNS were 84.6 µM and over 100 µM, respectively.

Turning to `COc1ccc(Cl)cc1Nc1nc(C(F)(F)F)ccc1C(=O)N/N=C/c1c(Cl)cccc1Cl`, the GI50 with OVCAR-4 ovarian was 5.16 µM; with SK-MEL-28 melanoma, over 100 µM; in the assay on UACC-257 melanoma, over 100 µM; in the assay with HL-60(TB) leukemia, 4.87 µM; in the assay with 786-0 renal, 8.49 µM; in the assay with NCI-H23 lung, 38.5 µM. For the same molecule, in the assay on SF-295 CNS, the GI50 is 3.34 µM. For the same molecule, the TGI is over 100 µM in the assay with OVCAR-4 ovarian; over 100 µM in the assay with SK-MEL-28 melanoma; over 100 µM with UACC-257 melanoma; 41.6 µM in the assay on HL-60(TB) leukemia; over 100 µM in the assay on 786-0 renal; over 100 µM in the assay on NCI-H23 lung. In the assay with SF-295 CNS, this molecule registered a TGI of 72.6 µM.

`CCOC(=O)C(=O)Nc1nc2c(s1)C(=O)c1ccccc1C2=O`: the TGI in the assay on OVCAR-4 ovarian amounted to 31.5 µM; in the assay with UO-31 renal, 28 µM; with COLO 205 colon, 56.4 µM; with SK-MEL-28 melanoma, 27.6 µM; in the assay on UACC-257 melanoma it was 31.4 µM; in the assay on 786-0 renal, 31.2 µM. This molecule gave a TGI with NCI-H23 lung of 27.6 µM.

Consider `CNC(P(=O)([O-])[O-])P(=O)([O-])[O-].N.N.[Pt+2]`, for which the GI50 with OVCAR-4 ovarian, with UO-31 renal, in the assay on COLO 205 colon, in the assay on SK-MEL-28 melanoma, in the assay with 786-0 renal and with NCI-H23 lung was over 100 µM in each case. For the same molecule, the GI50 in the assay with SF-295 CNS was over 100 µM. The TGI with OVCAR-4 ovarian, in the assay on UO-31 renal, in the assay on COLO 205 colon, in the assay on SK-MEL-28 melanoma, in the assay with 786-0 renal and in the assay on NCI-H23 lung was over 100 µM each time. Also, in the assay with SF-295 CNS, the TGI is over 100 µM.

On to `Cc1cc(C)nc(NS(=O)(=O)c2ccc(Nc3c4ccccc4nc4c(C(=O)Nc5ccc(S(=O)(=O)N=C(N)N)cc5)ccc(Cl)c34)cc2)n1`, for which the TGI with OVCAR-4 ovarian is 75.4 µM; with UO-31 renal, 73.9 µM; in the assay on COLO 205 colon, over 100 µM; in the assay with UACC-257 melanoma, over 100 µM; with HL-60(TB) leukemia, 54 µM; with 786-0 renal it was over 100 µM. Also, the TGI in the assay with NCI-H23 lung was 43.7 µM; in the assay with SF-295 CNS, over 100 µM.

In the case of `O=C(O)c1c(-c2cccc3ccccc23)sc(-c2cccc3ccccc23)c1C(=O)O`, the TGI in the assay on UO-31 renal, in the assay on COLO 205 colon, in the assay on SK-MEL-28 melanoma, with UACC-257 melanoma, in the assay with HL-60(TB) leukemia and with 786-0 renal was over 100 µM throughout. The TGI with NCI-H23 lung and in the assay on SF-295 CNS was over 100 µM in each case.
